Measured values as given in ChEMBL document CHEMBL5352390, “Design, synthesis and biological evaluation of (Quinazoline 4-yloxy)acetamide and (4-oxoquinazoline-3(4H)-yl)acetamide derivatives as inhibitors of Mycobacterium tuberculosis bd oxidase” (2022).
Values after ≈ are worked out from the molar mass of the structure shown.

Tested on: Mycobacterium tuberculosis
Assay: Antimycobacterial activity against Mycobacterium tuberculosis H37Rv harboring qcrB deletion mutant assessed as inhibition of bacterial growth incubated for 7 days by resazurin microplate assay
Format: functional
Conditions: time 7 day

| SMILES | MIC [µM] |
| --- | --- |
| O=C(Cn1cnc2ccccc2c1=O)Nc1ccc([N+](=O)[O-])cc1 | >32 |
| O=C(COc1ncnc2ccccc12)NCc1ccc(N2CCN(c3ccc(F)cc3)CC2)cc1 | >32 |
| O=C(Cn1cnc2ccccc2c1=O)Nc1ccc(C(F)(F)F)cc1 | >32 |
| COc1ccccc1NC(=O)Cn1cnc2ccccc2c1=O | >32 |
| COc1ccc(NC(=O)Cn2cnc3ccccc3c2=O)cc1 | >32 |
| CSc1ccc(NC(=O)Cn2cnc3ccccc3c2=O)cc1 | >32 |
| O=C(COc1ncnc2ccccc12)NCc1ccc(N2CCN(Cc3ccccc3)CC2)cc1 | >32 |
| Cc1ccc(NC(=O)COc2ncnc3ccccc23)cc1 | >32 |
| O=C(Cn1cnc2ccccc2c1=O)Nc1ccc(F)cc1 | >32 |
| O=C(COc1ncnc2ccccc12)Nc1ccc(Br)cc1 | >32 |
| O=C(COc1ncnc2ccccc12)NCc1ccc(N2CCC(c3ccccc3)CC2)cc1 | >32 |
| O=C(COc1ncnc2ccccc12)Nc1ccc(OC(F)(F)F)cc1 | >32 |
| O=C(COc1ncnc2ccccc12)Nc1cccc2ccccc12 | >32 |
| O=C(Cn1cnc2ccccc2c1=O)Nc1ccc(Br)cc1 | >32 |
| Cc1ccc(NC(=O)Cn2cnc3ccccc3c2=O)cc1 | >32 |
| Cc1ccccc1NC(=O)COc1ncnc2ccccc12 | >32 |
| O=C(COc1ncnc2ccccc12)Nc1ccc(Cl)cc1 | 16 (≈ 5.02 µg/mL) |
| O=C(Cn1cnc2ccccc2c1=O)Nc1ccc(OC(F)(F)F)cc1 | >32 |
| O=C(COc1ncnc2ccccc12)Nc1ccc(C(F)(F)F)cc1 | >32 |
| O=C(Cn1cnc2ccccc2c1=O)NC1=C(C(F)(F)F)CCC=C1 | >32 |
| COc1ccccc1NC(=O)COc1ncnc2ccccc12 | >32 |
| COc1ccc(NC(=O)COc2ncnc3ccccc23)cc1 | >32 |
| O=C(Cn1cnc2ccccc2c1=O)Nc1ccccc1 | >32 |
| O=C(COc1ncnc2ccccc12)Nc1ccccc1 | 8 (≈ 2.23 µg/mL) |
| COc1ccc(N2CCN(c3ccc(CNC(=O)COc4ncnc5ccccc45)cc3)CC2)cc1 | >32 |
| O=C(Cn1cnc2ccccc2c1=O)Nc1ccc(Cl)cc1 | >32 |
| O=C(COc1ncnc2ccccc12)NCc1ccccc1 | >32 |
| O=C(COc1ncnc2ccccc12)Nc1ccc(F)cc1 | >32 |
| O=C(COc1ncnc2ccccc12)NCc1ccc(N2CCN(c3ccccc3)CC2)cc1 | >32 |
